# Results as given in ChEMBL document CHEMBL1133801, “Synthesis, characterisation and antiamoebic activity of new thiophene-2-carboxaldehyde thiosemicarbazone derivatives and their cyclooctadiene Ru(II) complexes” (Bioorg Med Chem Lett, 2001).
# Tested on: Entamoeba histolytica
# Assay: In vitro antiamoebic activity was evaluated against HK-9 strain of Entamoeba histolytica
# Type: functional, organism-based
row,Structure (SMILES),IC50
1,S=C(N/N=C/c1cccs1)NC1CCCC1,0.64 µg/mL
2,S=C(N/N=C/c1cccs1)NC1CCCCCCC1,0.5 µg/mL

# Results, then the molecule that gave them:
row,IC50,Structure (SMILES)
1,0.56 µg/mL,S=C(N/N=C/c1cccs1)NC1CCCCC1
2,0.7 µg/mL,S=C(N/N=C/c1cccs1)N1CCCCCC1
3,0.22 µg/mL,Cc1ncc([N+](=O)[O-])n1CCO [METRONIDAZOLE]
